We go through four molecules from patent EP4810052A2, “HCRHR2 SELECTIVE POLYPEPTIDES” (Gubra A/S, priority 2023, dated 2026).

Read-outs that look alike come from different tables or passages of the source. Starred links: 1 amine or outer side, 2 acyl side, 3 side chain; linkers in the order of their positions; H or OH if unused. Non-standard residues stand in square brackets, D forms with d. Residues, ends and D or L forms follow the SMILES beside them. Groups on a side chain read outwards from the residue. *: point of attachment. C20 diacid = O=C(O)CCCCCCCCCCCCCCCCCCC(=O)*; γGlu = O=C(O)[C@H](CCC(=O)[*:2])N[*:1]; Nle = CCCC[C@H](N)C(=O)O; AEEA = NCCOCCOCC(=O)O; Aib = CC(C)(N)C(=O)O Bounds are passed on as bounds.

Data set [1] is described as follows: Dynamic Light Scattering (DLS) of peptide oligomerisation/particle formation. It is filed as physicochemical. The conditions noted are these: average of three replica. On the procedure: Samples were prepared by dissolving 800 nmol of each peptide in 400 µl 50 mM phosphate pH 8.0 to a concentration of 2000 µM (ca 10 mg/ml). After fully dissolution for 2 hours on a rocking table, samples were adjusted to pH 7.5 and filtrated through a 0.2 µm Whatman Anotop filter. Comparators were commercially available liraglutide drug product (Victoza®, Novo Nordisk) pH 8.2, and an aliquot of this drug product adjusted to pH 6.7. These samples were filtrated through a 0.02 µm Whatman Anotop filter.
Samples were pipetted as triplicate of 30 µl to an Aurora 384 well microtiter plate, which was centrifuged for 2 minutes at 2200 rpm and then sealed with a Thermo sealing tape 235307. DLS measurements were done in a Wyatt DynaPro platereader III with the following parameters:
The microtiter plate was incubated in a Grant-bio Thermo Shaker PHMP-4 at 40°C with 700 rpm continuous shaking before subsequent DLS measurements. Data analysis was done using Wyatt Dynamics software ver. 7.10.1.21.
Samples were prepared and measured as described in procedure. The hydrodynamic radii (Rh) and associated polydispersity (PD) resulting from cumulant analysis (assuming one species) are shown in the Table 8 as averages of three replica. T0 indicates the measurement at time zero after sample preparation; T5 indicates the measurements of five days of incubation as described above.

Data set [2] in a line: Chemical stability of purified peptides (RP-UHPLC main peak purity loss). The data set is classed as physicochemical. In a few lines: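 Peptides at about 1.0 mg/ml in 50 mM phosphate buffer pH 7.5, or pH-adjusted for the pH series, were incubated at 40 °C for 14 and 28 days. Main-peak purity was taken as main-peak area over total area by RP-UHPLC (UV 215 nm, C8, 50 °C). Purity loss was calculated versus T0.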

The nature of data set [3]: Thioflavin T fibril formation assay of purified peptides. The data set is classed as physicochemical. Also on record: key: Amyloid fibril formation detected by an increase in ThT fluorescence was denoted with "Yes"; samples without increasing ThT fluorescence hence not forming amyloid fibrils were denoted "No". In a few lines:
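Compounds at 200 µM in 50 mM phosphate buffer at the stated pH values, or at 200 µM in semaglutide drug product adjusted to pH 7.4, with 4 µM ThT final. Fibrillation followed as ThT fluorescence (ex 450/em 480 nm) over 96 h at 40°C, with 5 min shaking at 700 rpm alternating with 5 min rest; triplicates.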

Another data set in a line: PK in rats. The conditions noted are these: Rat. The arrangement: T½ / MRT: unit not given here. The data set is classed as in vivo. On the procedure:
Lean male Sprague Dawley rats (RJHan:SD) were obtained from JanVier (JanVier Labs, France) at 7 weeks of age. The animals were pair housed until randomization under a 12/12 h dark-light cycle, light off at 3 PM. Room temperature was controlled to 22°C ± 1°C, with 60 % ± 20% humidity.
Animals had ad libitum access to regular rodent chow (Altromin 1324, Brogaarden, Denmark) and tap water.
After 2 weeks of acclimatization, the animals were single housed and randomized into treatment groups (n = 3 per group) based on body weight on study day -3. On study day 1, animals were dosed 50 nmol/kg IV and SC in combination of two peptides. Plasma samples were collected for PK analysis at times 0.17, 1, 3, 6, 24, 30, 48, 72 and 96 hours post dosing. Plasma samples were analyzed using LC-MSMS and PK parameters were estimated by Non-Compartmental Analysis (NCA).

In the next data set the target is T1, hCRHR2 (Homo sapiens, UniProt Q13324).
T1 sequence (Q13324 1-411): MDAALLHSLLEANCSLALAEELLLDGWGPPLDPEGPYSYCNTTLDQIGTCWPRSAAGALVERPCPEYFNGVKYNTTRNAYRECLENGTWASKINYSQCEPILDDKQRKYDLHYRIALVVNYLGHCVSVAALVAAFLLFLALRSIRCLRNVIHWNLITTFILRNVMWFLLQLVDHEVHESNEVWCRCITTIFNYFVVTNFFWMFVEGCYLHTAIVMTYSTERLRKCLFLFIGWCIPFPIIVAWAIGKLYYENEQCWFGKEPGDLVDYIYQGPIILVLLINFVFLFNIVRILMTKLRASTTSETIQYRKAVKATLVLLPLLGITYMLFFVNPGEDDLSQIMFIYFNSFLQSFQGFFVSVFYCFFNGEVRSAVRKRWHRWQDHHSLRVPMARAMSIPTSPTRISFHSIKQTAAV
Nature of the data set: HTRF cAMP assay, determination of hCRHR2 potency (peptide libraries 5 conc., purified peptides 11 conc.). The data set is classed as cell-based. The conditions noted are these: for EC50: read-out: hCRHR2 EC50. Put shortly: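 Potency was read as cAMP accumulation in a stable CHO-K1 line expressing human CRHR2, used in suspension right after thawing. Detection relied on energy transfer from antibody-bound cryptate to d2-cAMP.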

For data set [4] the following is noted: pH 7.5.
The target of the next data set is T2, hCRHR1 (Homo sapiens, UniProt P34998).
T2 sequence (P34998 24-415): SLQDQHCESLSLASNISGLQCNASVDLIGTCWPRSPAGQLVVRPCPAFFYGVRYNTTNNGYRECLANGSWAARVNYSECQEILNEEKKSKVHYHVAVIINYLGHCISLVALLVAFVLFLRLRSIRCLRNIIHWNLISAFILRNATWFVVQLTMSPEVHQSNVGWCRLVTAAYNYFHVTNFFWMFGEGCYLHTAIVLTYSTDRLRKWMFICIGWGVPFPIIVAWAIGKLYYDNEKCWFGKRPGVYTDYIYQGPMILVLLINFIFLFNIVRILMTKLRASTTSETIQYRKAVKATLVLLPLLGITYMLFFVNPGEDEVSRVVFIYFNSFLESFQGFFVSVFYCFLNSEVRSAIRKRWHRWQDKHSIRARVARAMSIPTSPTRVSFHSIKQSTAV
Briefly: HTRF cAMP assay, determination of hCRHR1 potency (peptide libraries 5 conc., purified peptides 11 conc.). It is filed as cell-based. The conditions noted are these: read-out: hCRHR1 EC50. Put shortly:
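CHO-K1 cells stably expressing human CRHR1, thawed from frozen stocks just before use, were stimulated in suspension with agonist peptides. cAMP was measured by HTRF competitive immunoassay (cryptate anti-cAMP antibody vs d2-cAMP).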

The mark [5] stands for this setting: T0, time zero after sample preparation.
Setting [6] is: T5, five days incubation at 40°C with continuous shaking.

For the molecule liraglutide, in data set [1] (setting [5]), the “PD (%)” value came out at 6.0% and the “Rh (nm)” value turned out to be 2.5 nm. In data set [1] (setting [6]), the “PD (%)” value is on record as “Multimodal” and the “Rh (nm)” value is reported as 5.6 nm.
For the molecule `CCCC[C@H](NC(=O)[C@@H](NC(=O)[C@H](CCC(=O)O)NC(=O)C(C)(C)NC(=O)[C@H](CC(N)=O)NC(=O)[C@@H](NC(=O)[C@H](CCCCNC(=O)COCCOCCNC(=O)COCCOCCNC(=O)CC[C@H](NC(=O)CC[C@H](NC(=O)CCCCCCCCCCCCCCCCCCC(=O)O)C(=O)O)C(=O)O)NC(=O)[C@H](C)NC(=O)[C@H](CCC(N)=O)NC(=O)[C@H](CCC(=O)O)NC(=O)[C@H](CCCNC(=N)N)NC(=O)[C@H](C)NC(=O)[C@H](C)NC(=O)[C@H](CCCNC(=N)N)NC(=O)[C@H](C)NC(=O)[C@H](CCCNC(=N)N)NC(=O)[C@H](C)NC(=O)[C@H](CCC(N)=O)NC(=O)[C@H](CO)NC(=O)[C@H](CC(C)C)NC(=O)[C@H](CC(C)C)NC(=O)[C@@H](NC(=O)[C@H](CCC(N)=O)NC(=O)[C@H](CC(C)C)NC(=O)[C@H](CC(C)C)NC(=O)CNC(=O)[C@@H](NC(=O)[C@@H]1CCCN1C(=O)[C@@H](NC(=O)[C@H](CC(=O)O)NC(=O)[C@H](CC(C)C)NC(=O)[C@H](CO)NC(=O)[C@H](CC(C)C)NC(=O)[C@@H](NC(=O)[C@@H](N)[C@@H](C)CC)C(C)C)C(C)C)[C@@H](C)CC)[C@@H](C)CC)[C@@H](C)O)[C@@H](C)CC)C(=O)N[C@@H](C)C(=O)N[C@@H](CCC(=O)O)C(=O)N[C@H](C(N)=O)C(C)C` [compound 234] (H-IVLSLDVPIGLLQILLSQARARAAREQAK([AEEA-AEEA-γGlu-γGlu-C20 diacid])TN[Aib]EI[Nle]AEV-NH2), in data set [2] (pH 7.5, 14 days, 40°C), the “Chemical stability at pH 7.5 after 14 days at 40°C (% degradation)” value is recorded as -0.43%. The “Chemical stability at pH 7.5 after 28 days at 40°C (% degradation)” value in data set [2] (pH 7.5, 28 days, 40°C) is -1.1%. In addition, the “Fibrillation (pH 7.5)” value in data set [3] (pH 7.5) is recorded as “No”. For the same molecule, in the data set “PK in rats”, the MRT is listed as 5.1 and the T½ turned out to be 4.1. Also, the “Selectivity ratio (hCRHR1/ hCRHR2)” value on hCRHR2 (Table 5) was more than 6250. Further, the EC50 at hCRHR2 (Table 5, purified peptides) stood at 0.8 nM. The “Solubility pH 7.5, target conc. =10 mg/mL (measured mg/mL)” value in data set [4] was determined as 11 mg/mL. Also, the EC50 on hCRHR1 (Table 5, purified peptides) is more than 5000 nM.
As to Liraglutide pH 8.2, in data set [1] (setting [5]), the “PD (%)” value is listed as 1.4% and the “Rh (nm)” value came to 2.1 nm. Moreover, in data set [1] (setting [6]), the “PD (%)” value is listed as 3.8% and the “Rh (nm)” value is 2.1 nm.
For the molecule `CC[C@H](C)[C@H](N)C(=O)N[C@H](C(=O)N[C@@H](CC(C)C)C(=O)N[C@@H](CO)C(=O)N[C@@H](CC(C)C)C(=O)N[C@@H](CC(=O)O)C(=O)N[C@H](C(=O)N1CCC[C@H]1C(=O)N[C@H](C(=O)NCC(=O)N[C@@H](CC(C)C)C(=O)N[C@@H](CC(C)C)C(=O)N[C@@H](CCC(N)=O)C(=O)N[C@H](C(=O)N[C@@H](CC(C)C)C(=O)N[C@@H](CC(C)C)C(=O)N[C@@H](CCC(=O)O)C(=O)N[C@@H](CCC(N)=O)C(=O)N[C@@H](C)C(=O)N[C@@H](CCCNC(=N)N)C(=O)N[C@@H](C)C(=O)N[C@@H](CCCNC(=N)N)C(=O)N[C@@H](C)C(=O)N[C@@H](C)C(=O)N[C@@H](CCCNC(=N)N)C(=O)N[C@@H](CCC(=O)O)C(=O)N[C@@H](CCC(N)=O)C(=O)N[C@@H](C)C(=O)N[C@@H](CCCCNC(=O)COCCOCCNC(=O)COCCOCCNC(=O)CC[C@H](NC(=O)CC[C@H](NC(=O)CCCCCCCCCCCCCCCCCCC(=O)O)C(=O)O)C(=O)O)C(=O)N[C@H](C(=O)N[C@@H](CC(N)=O)C(=O)NC(C)(C)C(=O)N[C@@H](CCC(=O)O)C(=O)N[C@H](C(=O)N[C@@H](CC(C)C)C(=O)N[C@@H](C)C(=O)N[C@@H](CCC(=O)O)C(=O)N[C@H](C(N)=O)C(C)C)[C@@H](C)CC)[C@@H](C)O)[C@@H](C)CC)[C@@H](C)CC)C(C)C)C(C)C` [SEQ ID NO: 15] (H-IVLSLDVPIGLLQILLEQARARAAREQAK([AEEA-AEEA-γGlu-γGlu-C20 diacid])TN[Aib]EILAEV-NH2), the “Chemical stability at pH 7.5 after 14 days at 40°C (% degradation)” value in data set [2] (pH 7.5, 40°C, 14 days, first value of cell) is reported as -1.0%. Besides, the “Chemical stability at pH 7.5 after 28 days at 40°C (% degradation)” value in data set [2] (pH 7.5, 40°C, 28 days, second value of cell) is recorded as -1.2%. In addition, the “Fibrillation (pH 7.5)” value in data set [3] (pH 7.5, ThT assay) is “No”. For the same molecule, in “PK in rats”, the MRT was 8 and the T½ turned out to be 7.7. The “Selectivity ratio (hCRHR1/ hCRHR2)” value on hCRHR2 (hCRHR1-EC50/hCRHR2-EC50) was more than 2174. At hCRHR2 (purified peptides, CHO-K1 cells stably expressing hCRHR2, cAMP HTRF), the EC50 was 2.3 nM. Besides, the “Solubility pH 7.5, target conc. =10 mg/mL (measured mg/mL)” value in data set [4] is 9.8 mg/mL. Further, the EC50 on hCRHR1 (purified peptides, CHO-K1 cells stably expressing hCRHR1, cAMP HTRF) was more than 5000 nM.
